Test results as given in patent publication EP2112152A1, “Dihydropteridinones as Plk Inhibitors” (GPC Biotech AG, priority 2008, dated 2009).
Where two headings read alike, the source gives them in different places.

Tests used:
[1] = target: T1, Plk1 (Homo sapiens, UniProt P53350); assay: Select Screen Kinase Assay (Invitrogen Kinase Profiling Service); type: biochemical; settings: tested at Invitrogen; read-out: IC50 values against Plk1 activity
Method: Selected compound of the present invention were tested in the Select Screen™ Kinase Profiling Service (Invitrogen Corporation, Madison, WI 53719, USA) against Plk1, under conditions of non-disclosure, non-dissemination and non-use.
In brief, compounds 1 and 13 (see Table 1) were tested at Invitrogen, and IC50 values against Plk1 activity of about 20 nM were obtained in each case.

[2] = tested on: HCT 116; assay: SRB cell proliferation assay, HCT 116; type: cell-based; settings: Homo sapiens
In short: (§1)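 Cells plated 24 h before compound, then exposed 72 h over a concentration range. TCA-fixed, sulforhodamine B-stained, bound dye read at OD520; IC50 derived from % inhibition of proliferation versus DMSO-treated cells.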

[3] = tested on: IMR-90; assay: SRB cell proliferation assay, IMR-90; type: cell-based; settings: Homo sapiens
In short: as §1

[4] = tested on: DU 145; assay: SRB cell proliferation assay, DU 145; type: cell-based; settings: Homo sapiens, 18-Cell Line Panel, prostate, read-out: IC50 DU145
Method: (§2) Cells were exposed to the test compounds at various concentrations appropriate to determine an IC50 for 72 hours. Cell proliferation was measured using the SRB assay according to Shekan et al (J Natl Cancer Inst (1990) 82, 1107-112) in order to estimate the IC50 values shown in Table 3. Briefly, cells were plated in 96 well dishes 24 hours prior to compound addition at the densities specified in Table 5.1. The assay was terminated with the addition of cold TCA to a final concentration of 10% after growth medium has been removed and the plates were incubated over night at 4°C. The plates were then washed 5 times with water and 100µl of a Sulforhodamine B solution (4%) was added to each well. The plates were then incubated for 10 minutes at room temperature before removal of unbound dye by washing with 1% acetic acid. The bound dye was solubilised with 10 mM Trizma base and the absorbance read at OD520.
(§3) Table 8.1: 18-Cell Line Panel

[5] = tested on: PC-3; assay: SRB cell proliferation assay, PC-3; type: cell-based; settings: Homo sapiens, 18-Cell Line Panel, prostate
Method: as §2, §3

[6] = tested on: HeLa; assay: SRB cell proliferation assay, HeLa; type: cell-based; settings: Homo sapiens, 18-Cell Line Panel, cervix
Method: as §2, §3

[7] = tested on: SK-MEL-28; assay: SRB cell proliferation assay, SK-MEL-28; type: cell-based; settings: Homo sapiens, 18-Cell Line Panel, melanoma
Method: as §2, §3

[8] = target: T1, Plk1; assay: Cellular Plk1 kinase activity: nucleophosmin (B23) Ser4 phosphorylation in HCT116 cells (MSD electrochemiluminescence); type: cell-based; design: host or cells: HCT116; settings: 100 ng/ml nocodazole, 4 hours after compound addition, read-out: Biochemical IC50 Nucleophosmin assay
In short: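 HCT116 cells arrested with 100 ng/ml nocodazole for 20 h, then compound for 4 h before lysis. Nucleophosmin Ser4 phosphorylation quantified by MSD electrochemiluminescence with cross-reactive anti-phospho-Mek1/2 antibody; % inhibition relative to cells without nocodazole, IC50 derived.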

[9] = HCT-116, 18-Cell Line Panel, colon, read-out: IC50 HCT116
[10] = HCT-116, 72 h, 72 hours, SRB assay, read-out: CELLULAR IC50 HCT 116
[11] = 18-Cell Line Panel, lung, read-out: IC50 IMR-90
[12] = 72 hours, SRB assay, slow cycling cell line, read-out: CELLULAR IC50 IMR-90

T1 sequence (P53350 whole entry, species assumed): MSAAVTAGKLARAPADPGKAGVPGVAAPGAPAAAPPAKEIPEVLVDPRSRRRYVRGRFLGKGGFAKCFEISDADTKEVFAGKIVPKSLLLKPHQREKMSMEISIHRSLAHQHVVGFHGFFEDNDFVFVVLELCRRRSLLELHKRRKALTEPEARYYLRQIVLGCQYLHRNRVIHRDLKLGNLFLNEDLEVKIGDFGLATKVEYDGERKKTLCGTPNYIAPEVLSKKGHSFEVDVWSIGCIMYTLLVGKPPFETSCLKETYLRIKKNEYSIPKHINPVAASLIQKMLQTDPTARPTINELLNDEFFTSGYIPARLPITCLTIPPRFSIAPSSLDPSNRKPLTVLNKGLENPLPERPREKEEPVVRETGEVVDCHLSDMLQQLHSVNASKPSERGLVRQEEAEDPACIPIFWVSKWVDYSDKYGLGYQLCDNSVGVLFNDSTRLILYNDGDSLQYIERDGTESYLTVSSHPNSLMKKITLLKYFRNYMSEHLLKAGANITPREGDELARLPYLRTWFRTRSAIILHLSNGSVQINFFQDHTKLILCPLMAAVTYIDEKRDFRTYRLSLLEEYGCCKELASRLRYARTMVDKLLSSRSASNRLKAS

Structure (SMILES) | IC50 [1] [µM] | IC50 [2, 9] [µM] | IC50 [2, 10] [µM] | IC50 [3, 11] [µM] | IC50 [3, 12] [µM] | IC50 [4] [µM] | IC50 [5] [µM] | IC50 [6] [µM] | IC50 [7] [µM] | IC50 [8] [µM]
CCC1C(=O)N(C)c2cnc(Nc3ccc(C(=O)N[C@H]4CC[C@H](N5CCN(CC6CC6)CC5)CC4)cc3OC)nc2N1N(C)C (relative stereo) [Compound 13, N-[trans-4-(4-Cyclopropylmethyl-piperazin-1-yl)-cyclohexyl]-4-(8-dimethylamino-7-ethyl-5-methyl-6-oxo-5,6,7,8-tetrahydro-pteridin-2-ylamino)-3-methoxy-benzamide] | ~0.02 | < 1 | < 1 | > 1 | > 1 | < 1 | < 1 | < 1 | > 1 | < 0.1
CCC1C(=O)N(C)c2cnc(Nc3ccc(C(=O)NC4CCN(C)CC4)cc3OC)nc2N1N(C)C (racemic) [Compound 1, 4-(8-Dimethylamino-7-ethyl-5-methyl-6-oxo-5,6,7,8-tetrahydro-pteridin-2-ylamino)-3-methoxy-N-(1-methyl-piperidin-4-yl)-benzamide] | ~0.02 | < 1 | < 1 | > 1 | > 1 | < 1 | < 1 | < 1 | > 1 | < 0.1
